Read-outs that look alike come from different tables or passages of the source. Ends that are not written are not given here.
What was measured:
[1] = tested on: Staphylococcus aureus; conditions: 16 h
Procedure: (§1) MICs of the peptides against six standard bacteria and four multidrug-resistant bacteria were determined by a broth microdilution assay as described previously. […] Cytotoxicities against mammalian cells were measured against human RBCs, mouse macrophage-derived RAW264.7 cells, and fibroblast NIH-3T3 cells. The anti-inflammatory activities of the peptides were examined by inhibiting nitrite production in LPS-stimulated RAW264.7 cells.

[2] = tested on: Bacillus subtilis; conditions: 16 h
Procedure: as §1

[3] = tested on: Salmonella typhimurium; conditions: murium, 16 h
Procedure: as §1

[4] = tested on: Escherichia coli; conditions: 16 h
Procedure: as §1

[5] = tested on: Pseudomonas aeruginosa; conditions: 16 h
Procedure: as §1

[6] = tested on: Eenterococcus faecalis; conditions: E, 16 h
Procedure: as §1

[7] = tested on: MDREC 1229(R); conditions: 16 h
Procedure: (§2) We examined the antimicrobial activities of the peptides against multidrug-resistant bacterial strains, including four gram-negative species (S. typhimurium 8009(R), E. coli 1229(R), P. aeruginosa 2095(R), and A. baumannii 12035(R); Table 3).
as §1

[8] = tested on: MDRAB 12035(R); conditions: broth microdilution, 16 h; unit not given
Procedure: as §2, §1

[9] = tested on: MDRPA 2095(R); conditions: 16 h
Procedure: as §2, §1

[10] = tested on: MDRST 8009(R); conditions: broth microdilution, 16 h; unit not given
Procedure: as §2, §1

[11] = tested on: gram-negative bacteria (E. coli, S. typhimurium, P. aeruginosa); conditions: for GM of the MIC values, gram-negative: 16 h; for Therapeutic Index (MHC/GM), gram-negative: ratio MHC (μM) over GM of MIC (μM)
Procedure: (§3) This property is assessed by the therapeutic index which can be defined as a ratio of the […] against human hRBCs to the MIC against bacterial cells.
as §1

[12] = tested on: gram-positive bacteria (B. subtilis, E. faecalis, S. aureus); conditions: for GM of the MIC values, gram-positive: 16 h; for Therapeutic Index (MHC/GM), gram-positive: ratio MHC (μM) over GM of MIC (μM)
Procedure: as §3, §1

[13] = tested on: RAW264.7 macrophage cells; assay: Cytotoxicity, MTT; assay type: cell-based, mouse
Procedure: We examined the cytotoxicity against human erythrocytes. […] Next, we examined the cytotoxicity of the peptides against RAW264.7 macrophage cells. We assessed the effects of the peptides on cell growth by measuring mitochondrial reduction of MTT to a colored product in live cells. […] On the other hand, PapC produced high cytotoxicity against RAW264.7 cells, even at low concentrations. […] In case of PapN-2A, Pap-5A, and Pap-2A5A, the cell survival rates at a peptide concentration of 100 μM were approximately 90% or more. Thus, Trp^2 and Phe^5 are important for the cytotoxic activity of papiliocin toward RAW264.7 cells.
as §1

Substance | MIC, Staphylococcus aureus [1] [µM] | MIC, Bacillus subtilis [2] [µM] | MIC, Salmonella typhimurium [3] [µM] | MIC, Escherichia coli [4] [µM] | MIC, Pseudomonas aeruginosa [5] [µM] | MIC, Eenterococcus faecalis [6] [µM] | MIC, MDREC 1229(R) [7] [µM] | MIC, MDRAB 12035(R) [8] [µM] | MIC, MDRPA 2095(R) [9] [µM] | MIC, MDRST 8009(R) [10] [µM] | GM of the MIC values, gram-negative [11] [µM] | Therapeutic Index (MHC/GM), gram-negative [11] | GM of the MIC values, gram-positive [12] [µM] | Therapeutic Index (MHC/GM), gram-positive [12] | cytotoxicity at the peptide's MIC [13] | Therapeutic Index (MHC/GM), gram-positive ([12]; listed as papiliocin)
RAKIAKKIEKVGRNVRDGIIKA-NH2 [PapN-2A5A] | 128 | >128 | 4.00 | 2.00 | 8.00 | >128 | 4.00 | 32.0 | 16.0 | 8.00 | 4.67 | 42.9 | 213 | 0.939 | – | –
RAKIAKKIEKVGRNVRDGIIKAGPAVAVVGQAATVVK-NH2 [Papiliocin-2A5A] | >128 | 128 | 1.00 | 0.500 | 0.500 | >128 | 2.00 | 0.500 | 1.00 | 4.00 | 0.667 | – | 213 | 0.939 | – | –
RAKIFKKIEKVGRNVRDGIIKA-NH2 [PapN-2A] | 32.0 | 32.0 | 4.00 | 2.00 | 4.00 | 128 | 2.00 | 8.00 | 4.00 | 2.00 | 3.33 | 60.0 | 64.0 | 3.13 | – | –
RAKIFKKIEKVGRNVRDGIIKAGPAVAVVGQAATVVK-NH2 [Papiliocin-2A] | 128 | 64.0 | 0.500 | 0.250 | 0.500 | 128 | 1.00 | 0.500 | 1.00 | 1.00 | 0.417 | – | 107 | 1.87 | – | –
RFKIWKKIEKVGRNVRDGIIKA-NH2 [PapN-2F5W] | 16.0 | 8.00 | 2.00 | 1.00 | 2.00 | 64.0 | 2.00 | 4.00 | 2.00 | 2.00 | 1.67 | 120 | 29.3 | – | – | –
RWKIAKKIEKVGRNVRDGIIKA-NH2 [PapN-5A] | 16.0 | 16.0 | 2.00 | 1.00 | 2.00 | 128 | 2.00 | 8.00 | 8.00 | 4.00 | 1.67 | 120 | 53.3 | 3.75 | – | –
RWKIAKKIEKVGRNVRDGIIKAGPAVAVVGQAATVVK-NH2 [Papiliocin-5A] | 128 | 64.0 | 0.500 | 0.250 | 0.500 | 128 | 1.00 | 0.500 | 1.00 | 1.00 | 0.417 | – | 107 | 1.87 | – | –
RWKIFKKIEKVGRNVRDGIIKA-NH2 [PapN] | 8.00 | 8.00 | 2.00 | 1.00 | 2.00 | 64.0 | 4.00 | 2.00 | 2.00 | 2.00 | 1.67 | 120 | 26.7 | – | – | –
RWKIFKKIEKVGRNVRDGIIKAGPAVAVVGQAATVVK-NH2 [Papiliocin] | 32.0 | 16.0 | 0.500 | 0.250 | 0.500 | 64.0 | 0.500 | 0.500 | 1.00 | 0.500 | 0.417 | – | 37.3 | 5.36 | not toxic at their MICs | 12.0

Source: PMC4496781, “Functional Roles of Aromatic Residues and Helices of Papiliocin in its Antimicrobial and Anti-inflammatory Activities” (Scientific Reports, 2015)
